Target: cAMP-dependent protein kinase catalytic subunit alpha (Bos taurus, UniProt P00517)
Assay: PKA assay
Settings: not given
Description: The activity of PKA, activated by cAMP, is measured by its ability to transfer phosphate from [gamma-32P]ATP to histone.

| IC50 [µM] | SMILES |
| --- | --- |
| 0.36 | COc1cccc(OC)c1C(=O)c1c(O)cc(C(=O)O[C@@H]2CCCNC[C@H]2NC(=O)c2ccc(O)cc2)cc1O [(3R,4R)-3-[(4-hydroxybenzene)amido]azepan-4-yl 4-[(2,6-dimethoxyphenyl)carbonyl]-3,5-dihydroxybenzoate] |
| 0.3 | O=C(N[C@@H]1CNCCC[C@H]1OC(=O)c1cc(O)c(C2OC(=O)c3cccc(O)c32)c(O)c1)c1ccc(O)cc1 (stereo partly drawn) [trans-4-[3,5-Dihydroxy-4-(4-hydroxy-3-phthlido)benzoyloxy]-3-(4-hydroxybenzamido)azepine] |
| > 150 | O=C(N[C@@H]1CNCCC[C@H]1OC(=O)c1cc(O)c(C(=O)c2ccc3ccccc3c2O)c(O)c1)c1ccc(O)cc1 [4-trans-[4-(1-Hydroxy-2-naphthoyl)-3,5-dihydroxybenzoyloxy]-3-(4-hydroxybenzamido)azepane] |
| 0.25 | COc1cccc(O)c1C(=O)c1c(O)cc(C(=O)O[C@@H]2CCCNC[C@H]2NC(=O)c2ccc(O)cc2)cc1O [(3R,4R)-3-[(4-hydroxybenzene)amido]azepan-4-yl 3,5-dihydroxy-4-[(2-hydroxy-6-methoxyphenyl)carbonyl]benzoate] |

| SMILES | IC50 [µM] |
| --- | --- |
| O=C(N[C@@H]1CNCCC[C@H]1OC(=O)c1cc(O)c(Cc2c(O)cccc2C(=O)O)c(O)c1)c1ccc(O)cc1 [2-{[2,6-dihydroxy-4-({[(3R,4R)-3-[(4-hydroxybenzene)amido]azepan-4-yl]oxy}carbonyl)phenyl]methyl}-3-hydroxybenzoic acid] | 0.47 |
| O=C(N[C@@H]1CNCCC[C@H]1OC(=O)c1cc(O)c2c(=O)c3c(C(=O)O)cccc3oc2c1)c1ccc(O)cc1 [8-hydroxy-6-({[(3R,4R)-3-[(4-hydroxybenzene)amido]azepan-4-yl]oxy}carbonyl)-9-oxo-9H-xanthene-1-carboxylic acid] | > 15 |
| COc1cc(C(=O)O[C@@H]2CCCNC[C@H]2NC(=O)c2ccc(O)cc2)cc(OC)c1C(=O)c1c(O)cccc1O [(3R,4R)-3-[(4-hydroxybenzene)amido]azepan-4-yl 4-[(2,6-dihydroxyphenyl)carbonyl]-3,5-dimethoxybenzoate] | 4.3 |

Same assay, conditions: pH 7.5; 30 °C

| IC50 [µM] | SMILES |
| --- | --- |
| 1 | O=C(N[C@@H]1CNCCC[C@H]1OC(=O)c1cc(O)c(C(=O)c2ccccc2C(=O)O)c(O)c1)c1ccc(O)cc1 |
| 0.44 | O=C(N[C@@H]1CNCCC[C@H]1OC(=O)c1cc(O)c(C(=O)c2c(O)cccc2O)c(O)c1)c1ccc(O)cc1 [(3R,4R)-3-[(4-hydroxybenzene)amido]azepan-4-yl 4-[(2,6-dihydroxyphenyl)carbonyl]-3,5-dihydroxybenzoate] |
| 0.44 | O=C(N[C@@H]1CNCCC[C@H]1OC(=O)c1cc(O)c(C(=O)c2ccccc2O)c(O)c1)c1ccc(O)cc1 [4-trans-[4-(2-Hydroxybenzoyl)-3,5-dihydroxybenzoyloxy]-3-(4-hydroxybenzamido)azepane] |

| SMILES | IC50 [µM] |
| --- | --- |
| O=C(N[C@@H]1CNCCC[C@H]1OC(=O)c1cc(O)c(C(=O)[C@@H]2CCCC[C@@H]2C(=O)O)c(O)c1)c1ccc(O)cc1 [4-trans-[4-(cis-2-Carboxycyclohexanoyl)-3,5-dihydroxybenzoyloxy]-3-(4-hydroxybenzamido)azepane] | 7.9 |
| O=C(N[C@@H]1CNCCC[C@H]1OC(=O)c1cc(O)c(C(=O)[C@@H]2CCCC[C@H]2C(=O)O)c(O)c1)c1ccc(O)cc1 [(1R,2R)-2-{[2,6-dihydroxy-4-({[(3R,4R)-3-[(4-hydroxybenzene)amido]azepan-4-yl]oxy}carbonyl)phenyl]carbonyl}cyclohexane-1-carboxylic acid] | 6.7 |
